Experimental data taken from patent US7179825B2, “Retinoic acid mimetic anilides” (Janssen Pharmaceutica N.V., priority 1997, dated 2007).

Legend:
[1] = tested on: metabolism of retinoic acid in human breast cancer cells; assay: Inhibition of retinoic acid (RA) metabolism (Example C.1); format: cell-based; conditions: MCF-7 human breast cancer cells, 3H-RA as substrate, concentration needed to reduce the amount of metabolites to 50% of the control
Procedure, shortened: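 MCF-7 cells, pre-stimulated with RA the day before, incubated with ³H-RA substrate and test compound in 1% DMSO. Polar ³H-metabolites separated from unmetabolized RA and counted by scintillation. IC50 is the concentration cutting metabolite formation to 50% of control, with blank run alongside.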

Ovariectomized rats = assay: Vaginal keratinization test on ovariectomized rats (Example C.2); format: in vivo; conditions: estradiol undecylate induced keratinization, per os once daily on days 1-3, active dose = 50% of rats show complete suppression
Procedure, shortened: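 Ovariectomized rats given s.c. estradiol undecylate (100 μg per 100 g body weight in sesame oil), then oral compound once daily on days 1-3 (vehicle PEG 200). Vaginas assessed histologically one day after last dose; lowest active dose (mg/kg) is the dose giving complete keratinization suppression in 50% of rats.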

Row | Compound | IC50 [1] [nM] | IC50 ([1]; MCF7) [nM] | LAD (lowest active dose) (Ovariectomized rats) [mg/kg] | minimal effective dose (Ovariectomized rats; Rattus norvegicus, po, read-out: LAD (lowest active dose)) [mg/kg]
1 | CC(=Cc1ccccc1)C(=O)Nc1ccc(C(C)(C)n2ccnc2)cc1 [Compound 753] | > 100 |  | >10.00 | 
2 | CC(C)C(c1ccc(NC(=S)Cc2ccc(Cl)cc2)cc1)n1ccnc1 (stereo not drawn) [Compound 764, 4-chloro-N-[4-[1-(1H-imidazol-1-yl)-2-methylpropyl]phenyl]benzenethane-thioamide] |  | 23.3 |  | > 5
3 | Cc1nccn1C(c1ccc(NC(=O)Nc2cccc(F)c2)cc1)C(C)C (stereo not drawn) [Compound 773] | > 100 |  | >10.00 | 
4 | O=C(Cc1ccc(Cl)cc1)Nc1ccc(C2(n3ccnc3)CCC2)cc1 [Compound 774] | 5.27 |  | 10.00 | 
5 | CC(=O)Nc1ccc(C2(n3ccnc3)CCCCC2)cc1 [Compound 776] | 4.39 |  | >20.00 | 
6 | CCC(CC)C(c1ccc(NC(=O)c2nc3ccccc3s2)cc1)n1ccnc1.O=C(O)C(=O)O (stereo not drawn) [Compound 778] | 75.9 |  | 5.00 | 

Second part, led by results:

Row | IC50 [1] [nM] | IC50 ([1]; MCF7) [nM] | Compound | LAD (lowest active dose) (Ovariectomized rats) [mg/kg] | minimal effective dose (Ovariectomized rats; Rattus norvegicus, po, read-out: LAD (lowest active dose)) [mg/kg]
7 | 1.88 |  | CCC(c1ccc(NC(=O)C(C)=Cc2ccccc2)cc1)(C(C)C)n1ccnc1 (stereo not drawn) [Compound 758] | >5.00 | 
8 | 40.8 |  | COc1ccc(CC(=O)Nc2ccc(C(C(C)C)(C(C)C)n3ccnc3)cc2)cc1OC [Compound 762] | >5.00 | 
9 | 5.62 |  | CC(C)C(c1ccc(NC(=O)Cc2ccc(Cl)cc2)cc1)(C(C)C)n1ccnc1 [Compound 763] | >5.00 | 
